According to patent US11325908B2, “CaMKII inhibitors and uses thereof” (The Johns Hopkins University, priority 2014, dated 2022):

Biological target: CaMKIIδ (Homo sapiens (Human), UniProt Q13557)
Test: In vitro CaMKIIδ activity assay (coupled assay measuring ADP released, AC3 peptide substrate)
Assay type: biochemical
Conditions: full length C-terminal His/Gln tagged CaMKIIδ construct, 16 nM enzyme, 25° C., compound 0.5 nM to 10 uM, duplicate
Description: An exemplary procedure for the in vitro CaMKIIδ inhibition assay, which can be used to determine the inhibitory action of compounds of the invention toward CaMKII, follows. The procedure is taken from Chao L H, et al., (2010) Nat Struct Mol Biol. 17(3): 264-272, which is incorporated herein by reference in its entirety.
The inhibition of CaMKII activity was evaluated using a coupled assay measuring ADP released following ATP hydrolysis and phosphor-transfer to the peptide substrate AC3 (KKALHRQETVDAL; SEQ ID NO: 1) (1). A full length, C-terminal His/Gln tagged CaMKIIδ construct was used (sequence in Table 3 below).
Compounds were added in 5 uL volume to wells in UV transparent 96-well plates (1/2 area well size). The final compound concentrations tested ranged from 0.5 nM to 10 uM). Assays were performed in duplicate. CaMKIIδ is added to at a final concentration of 16 nM to a mixture containing 100 mM Tris (pH 7.5), 150 mM KCl, 0.27 mM EGTA, 1.3 mM PEP, 0.2 mg/ml AC3, 6.9% (v/v) PK/LDH mixture (Sigma P0294), 0.38 mM NADH and kept on ice. 72 uL of the enzyme mixture was added to the wells containing compounds and the plate was shaken briefly and kept on ice. The assay was initiated by adding 23 uL of a mixture containing 100 mM Tris (pH 7.5), 150 mM KCl, 1.7 mM CaCl2, 48 mM MgCl2, 0.35 mM ATP and 6.7 ug/mL calmodulin. The rate of ADP released was measured as the rate of absorbance decrease at […] at 25° C. and plotted against the log of the compound concentration (FIG. 1). IC50 data were fitted using GraphPad Prism software.

| IC50 | Structure (SMILES) |
| --- | --- |
| 50 to 250 nM | c1cc(-c2ccnc3[nH]c4ccccc4c23)cc(N2CCNCC2)c1 [Compound I-1, 4-(3-(piperazin-1-yl)phenyl)-9H-pyrido[2,3-b]indole] |
| 50 to 250 nM | N=C(N)Nc1cccc(-c2ccnc3[nH]c4ccccc4c23)c1 [Compound I-4] |
| 250 to 1000 nM | N=C(N)NCc1cccc(-c2ccnc3[nH]c4ccccc4c23)c1 [Compound I-5] |
| 50 to 250 nM | Nc1cccc(-c2ccnc3[nH]c4ccccc4c23)c1 [Compound I-6] |
